How the values were obtained:
NF-κB = NF-κB reporter gene assay (TNF-α stimulated A549/NF-κB-luc cells); format: cell-based; details: Homo sapiens, TNF-α stimulation
Summary of the method: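 A549 cells stably carrying an NF-κB luciferase reporter were preincubated with compound for 1 h, then stimulated with TNF-α for 3 h. Luminescence was read with Steady-Glo, and inhibition was scaled between blank and DMSO control wells. IC50 was obtained by curve fitting.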

IL-6 production = experiment: LPS-induced IL-6 production model test; format: in vivo, C57BL/6J mice; details: Mus musculus, 1 h; 10 mg/kg oral, 30 min before LPS 1 mg/kg i.p., serum IL-6 60 min after LPS, mice
Description: In order to evaluate the inhibitory activity of inflammatory cytokine production in the present compounds, LPS-induced IL-6 production model evaluation was carried out. The specific method is described below.
An appropriate amount of each compound was weighed, triturated with an agate mortar, and suspended or dissolved in 1% methyl cellulose solution to prepare 1 mg/mL solution.
C57BL/6J mice (male, Purchaser: Charles River Laboratories Japan, Inc.) were weighted, before divided into normal group, control group and each compound-administered group based on the measured body weight using a random number, wherein each group contained 6 samples. The mice were manually held in hands and forced orally administered the 1% methyl cellulose solution (normal and control group) or each administration solution comprising the compound (each compound-administered group) at a dose of 10 mL/kg into stomach using a feeding needle. After 30 minutes from administration of the 1% methyl cellulose solution or each compound administration solution, the mice were manually held in hands and intraperitoneally administered physiological saline (normal group) or LPS solution (control and each compound-administered group) at a dose of 1 mg/kg. After 60 minutes from administration of the LPS solution, whole blood was collected from the abdominal vena cava of each mouse under isoflurane inhalation anesthesia (available from Mylan Seiyaku Ltd.), and the mice were euthanized. The collected blood was allowed to stand at room temperature for one hour, and then centrifuged at 1,500 G for 10 minutes to collect a serum (supernatant). The collected serum was stored in a deep freezer set at −80° C. until the measurement of IL-6 in the serum. The IL-6 concentration in the serum of each mouse was measured by a commercially available kit (available from R&D systems, Cat No. M6000B), according to the protocol attached thereto.
The IL-6 production inhibition rate (%) was calculated by the following equation using Microsoft EXCEL 2010. IL-6 production inhibition rate (%)=100−{(average value of IL-6 concentration in serum of each compound-administered group)−(average value of IL-6 concentration in serum of normal group))/(average value of IL-6 concentration in serum of control group)−(average value of IL-6 concentration in serum of normal group)}×100

[1] = target: Recombinant BRD4 (44-168) protein (Homo sapiens (Human), UniProt O60885); experiment: BRD4-H4KAc4 binding assay (amplified luminescence proximity homogeneous assay, AlphaScreen); details: 10 uM
Summary of the method: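 His/FLAG-tagged BRD4 (44-168) and biotinylated tetra-acetylated H4 peptide, each added as 250 nM solutions, incubated with compound 60 min at room temperature in the dark, then AlphaScreen beads 60 min. Emission 520-620 nm at 680 nm excitation, duplicates; % inhibition from blank- and DMSO-corrected signal.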

Row | Structure (SMILES) | IC50 (NF-κB) [nM] | inhibition at 10 µM [1] [%] | inhibition in vivo at 10 mg/kg (IL-6 production) [%]
1 | COc1cccc(CN2N=C(c3ccc(Cl)cc3)c3c(sc(C)c3C)-n3c(C)nnc32)n1 [Example 46, 4-(4-chlorophenyl)-6-((6-methoxypyridin-2-yl)methyl)-2,3,9-trimethyl-6H-thieno[2,3-e][1,2,4]triazolo[3,4-c][1,2,4]triazepine] | 683 | 100 | 
2 | Cc1nnc2n1-c1sccc1C(c1ccc(Cl)cc1)=NN2Cc1ccccc1 [Example 60, 6-benzyl-4-(4-chlorophenyl)-9-methyl-6H-thieno[2,3-e][1,2,4]triazolo[3,4-c][1,2,4]triaz epine] | 1690 | 100 | 
3 | COc1ccccc1C1=NN(Cc2cccnc2)c2nnc(C)n2-c2sc(C)c(C)c21 [Example 74, 4-(2-methoxyphenyl)-2,3,9-trimethyl-6-(pyridin-3-ylmethyl)-6H-thieno[2,3-e][1,2,4]triazolo[3,4-c][1,2,4]triazepine] | 2140 | 100 | 
4 | COc1ccnc(CN2N=C(c3ccc(Cl)cc3)c3c(sc(C)c3C)-n3c(C)nnc32)c1 [Example 48, 4-(4-chlorophenyl)-6-((4-methoxypyridin-2-yl)methyl)-2,3,9-trimethyl-6H-thieno[2,3-e][1,2,4]triazolo[3,4-c][1,2,4]triazepine] | 297 | 100 | 
5 | COc1ccc(CN2N=C(c3ccc(Cl)cc3)c3c(sc(C)c3C)-n3c(C)nnc32)nc1 [Example 47, 4-(4-chlorophenyl)-6-((5-methoxypyridin-2-yl)methyl)-2,3,9-trimethyl-6H-thieno[2,3-e][1,2,4]triazolo[3,4-c][1,2,4]triazepine] | 554 | 100 | 
6 | Cc1ccccc1CN1N=C(c2ccc(Cl)cc2)c2c(sc(C)c2C)-n2c(C)nnc21 [Example 11, 4-(4-chlorophenyl)-2,3,9-trimethyl-6-(2-methylbenzyl)-6H-thieno[2,3-e][1,2,4]triazolo[3,4-c][1,2,4]triazepine] | 291 | 100 | 
7 | Cc1sc2c(c1C)C(c1ccc(Cl)cc1)=NN(Cc1cccnc1Br)c1nnc(C)n1-2 [Example 79, 6-((2-bromopyridin-3-yl)methyl)-4-(4-chlorophenyl)-2,3,9-trimethyl-6H-thieno[2,3-e][1,2,4]triazolo[3,4-c][1,2,4]triazepine] | 742 | 100 | 
8 | COc1cccc(CN2N=C(c3ccc(Cl)cc3)c3ccsc3-n3c(C)nnc32)c1 [Example 64, 4-(4-chlorophenyl)-6-(3-methoxybenzyl)-9-methyl-6H-thieno[2,3-e][1,2,4]triazolo[3,4-c][1,2,4]triazepine] | 5490 | 100 | 
9 | COc1ccc(CN2N=C(c3ccc(Cl)cc3)c3c(sc(C)c3C)-n3c(C)nnc32)cn1 [Example 50, 4-(4-chlorophenyl)-6-((6-methoxypyridin-3-yl)methyl)-2,3,9-trimethyl-6H-thieno[2,3-e][1,2,4]triazolo[3,4-c][1,2,4]triazepine] | 355 | 100 | 
10 | Cc1nnc2n1-c1sccc1C(c1ccc(Cl)cc1)=NN2Cc1cccnc1 [Example 61, 4-(4-chlorophenyl)-9-methyl-6-(pyridin-3-ylmethyl)-6H-thieno[2,3-e][1,2,4]triazolo[3,4-c][1,2,4]triazepine] | 377 | 100 | 
11 | COc1ncc(F)cc1CN1N=C(c2ccc(Cl)cc2)c2c(sc(C)c2C)-n2c(C)nnc21 [Example 89, 4-(4-chlorophenyl)-6-((5-fluoro-2-methoxypyridin-3-yl)methyl)-2,3,9-trimethyl-6H-thieno[2,3-e][1,2,4]triazolo[3,4-c][1,2,4]triazepine] | 556 | 100 | 
12 | Cc1sc2c(c1C)C(c1ccc(Cl)cc1)=NN(Cc1cc(F)cnc1F)c1nnc(C)n1-2 [Example 88, 4-(4-chlorophenyl)-6-((2,5-difluoropyridin-3-yl)methyl)-2,3,9-trimethyl-6H-thieno[2,3-e][1,2,4]triazolo[3,4-c][1,2,4]triazepine] | 631 | 100 | 
13 | Cc1sc2c(c1C)C(c1ccc(Cl)cc1)=NN(Cc1ccnc(F)c1)c1nnc(C)n1-2 [Example 42, 4-(4-chlorophenyl)-6-((2-fluoropyridin-4-yl)methyl)-2,3,9-trimethyl-6H-thieno[2,3-e][1,2,4]triazolo[3,4-c][1,2,4]triazepine] | 1150 | 100 | 
14 | Cc1sc2c(c1C)C(c1ccc(Cl)cc1)=NN(Cc1cnccc1Cl)c1nnc(C)n1-2 [Example 43, 4-(4-chlorophenyl)-6-((4-chloropyridin-3-yl)methyl)-2,3,9-trimethyl-6H-thieno[2,3-e][1,2,4]triazolo[3,4-c][1,2,4]triazepine] | 1830 | 100 | 
15 | Cc1sc2c(c1C)C(c1ccc(Cl)cc1)=NN(Cc1cccs1)c1nnc(C)n1-2 [Example 45, 4-(4-chlorophenyl)-2,3,9-trimethyl-6-(thiophen-2-ylmethyl)-6H-thieno[2,3-e][1,2,4]triazolo[3,4-c][1,2,4]triazepine] | 429 | 99.9 | 
16 | Cc1sc2c(c1C)C(c1ccc(Cl)cc1)=NN(Cc1ccc(C(C)(C)C)cc1)c1nnc(C)n1-2 [Example 7, 6-(4-(tert-butyl)benzyl)-4-(4-chlorophenyl)-2,3,9-trimethyl-6H-thieno[2,3-e][1,2,4]triazolo[3,4-c][1,2,4]triazepine] | 735 | 99.8 | 

Stronger by IC50 (NF-κB), values ahead:

Row | IC50 (NF-κB) [nM] | inhibition at 10 µM [1] [%] | Structure (SMILES) | inhibition in vivo at 10 mg/kg (IL-6 production) [%]
17 | 34.2 |  | Cc1sc2c(c1C)C(c1ccc(N)cc1)=NN(Cc1cccnc1)c1nnc(C)n1-2 [Example 92, 4-(2,3,9-trimethyl-6-(pyridin-3-ylmethyl)-6H-thieno[2,3-e][1,2,4]triazolo[3,4-c][1,2,4]triazepin-4-yl)aniline] | 71
18 | 96 |  | CC(=O)Nc1ccc(C2=NNc3nnc(C)n3-c3sc(C)c(C)c32)cc1 [Example 94, N-(4-(2,3,9-trimethyl-6H-thieno[2,3-e][1,2,4]triazolo[3,4-c][1,2,4]triazepin-4-yl)phenyl)acetamide] | 45.7
19 | 197 | 100 | COc1ncccc1CN1N=C(c2ccc(Cl)cc2)c2c(sc(C)c2C)-n2c(C)nnc21 [Example 49, 4-(4-chlorophenyl)-6-((2-methoxypyridin-3-yl)methyl)-2,3,9-trimethyl-6H-thieno[2,3-e][1,2,4]triazolo[3,4-c][1,2,4]triazepine] | 17.9
20 | 87.2 | 99.2 | COc1cccc(CN2N=C(c3ccccc3)c3c(sc(C)c3C)-n3c(C)nnc32)c1 [Example 33, 6-(3-methoxybenzyl)-2,3,9-trimethyl-4-phenyl-6H-thieno[2,3-e][1,2,4]triazolo[3,4-c][1,2,4]triazepine] | 
21 | 265 | 100 | COc1ccncc1CN1N=C(c2ccc(Cl)cc2)c2c(sc(C)c2C)-n2c(C)nnc21 [Example 51, 4-(4-chlorophenyl)-6-((4-methoxypyridin-3-yl)methyl)-2,3,9-trimethyl-6H-thieno[2,3-e][1,2,4]triazolo[3,4-c][1,2,4]triazepine] | 
22 | 47.2 | 100 | Cc1sc2c(c1C)C(c1ccc(Cl)cc1)=NN(Cc1cccnc1N)c1nnc(C)n1-2 [Example 81, 3-((4-(4-chlorophenyl)-2,3,9-trimethyl-6H-thieno[2,3-e][1,2,4]triazolo[3,4-c][1,2,4]triazepin-6-yl)methyl)pyridin-2-amine] | 
23 | 104 | 100 | Cc1sc2c(c1C)C(c1ccc(Cl)cc1)=NN(Cc1ccccc1F)c1nnc(C)n1-2 [Example 8, 4-(4-chlorophenyl)-6-(2-fluorobenzyl)-2,3,9-trimethyl-6H-thieno[2,3-e][1,2,4]triazolo[3,4-c][1,2,4]triazepine] | 
24 | 276 | 100 | Cc1sc2c(c1C)C(c1ccc(Cl)cc1)=NN(Cc1ccc(C(F)(F)F)cc1)c1nnc(C)n1-2 [Example 14, 4-(4-chlorophenyl)-2,3,9-trimethyl-6-(4-(trifluoromethyl)benzyl)-6H-thieno[2,3-e][1,2,4]triazolo[3,4-c][1,2,4]triazepine] | 
